Values joined by “and” are separate entries in the source; they are usually repeats but may differ in a detail not shown here. Identical values can stand only once. Active and inactive are the calls of the source. How the calls were made is not given here.
Experiment: inhibitors of enzymatic SUMO conjugation, SAR follow-up, biochemical, AlphaScreen (AID 485374)
Conditions: AlphaScreen biochemical SUMOylation assay

COC(=O)C1=C(C(=O)OC)C2([C@@H](C)Nc3ccc(OC)cc3)C=CC1O2 (some centres not stated)
IC50: 55.6 µM

C=C[C@@H](Nc1ccccc1)C12C=CC(O1)C(C(=O)OC)=C2C(=O)OC (some centres not stated)
IC50: 7.23 µM

S=c1[nH]nc(-c2cc(-c3ccccc3)n[nH]2)n1N=Cc1ccc(Br)s1
IC50: 2.07 µM

COc1cc(/C=C2\C(=O)N(c3ccccc3)N=C2C)ccc1OCc1ccccc1
IC50: > 100 µM (inactive)

C=CCC(Nc1ccccc1)C12C=CC(O1)C(C(=O)OC)=C2C(=O)OC (configuration not stated)
IC50: 1.36 µM

C=CC[C@@H](Nc1ccc(C)cc1)C12C=CC(O1)C(C(=O)OC)=C2C(=O)OC (some centres not stated)
IC50: 12.4 µM

COC(=O)C1=C(C(=O)OC)C2([C@H](Cc3ccc(C)cc3)Nc3ccccc3)C=CC1O2 (some centres not stated)
IC50: 2.19 µM

COC(=O)C1=C(C(=O)OC)C2([C@H](C)Nc3ccc(Cl)cc3)C=CC1O2 (some centres not stated)
IC50: 11.5 µM

COC(=O)C1=C(C(=O)OC)C2([C@H](Cc3ccccc3)Nc3ccc(Cl)cc3)C=CC1O2 (some centres not stated)
IC50: 2.56 µM

COC(=O)C1=C(C(=O)OC)C2([C@@H](C)Nc3ccc(C)cc3)C=CC1O2 (some centres not stated)
IC50: 35.1 µM

COc1ccc(CN2C(=O)C(NC(C)=O)c3ccccc32)cc1 (configuration not stated)
IC50: > 100 µM (inactive)

COC(=O)C1=C(C(=O)OC)C2([C@@H](C)Nc3ccc(Cl)cc3)C=CC1O2 (some centres not stated)
IC50: 18.2 µM

COC(=O)C1=C(C(=O)OC)C2(C(Cc3ccc(OC(F)(F)F)cc3)Nc3ccccc3)C=CC1O2 (configuration not stated)
IC50: 0.611 µM

CCCCn1c(NC(=O)c2ccccc2)c(S(=O)(=O)c2ccc(C)cc2)c2nc3ccccc3nc21
IC50: 9.52 µM and 6.5 µM

COC(=O)C1=C(C(=O)OC)C2([C@H](C)Nc3ccccc3)C=CC1O2 (some centres not stated)
IC50: 23.9 µM

CCC[C@H](Nc1ccccc1)C12C=CC(O1)C(C(=O)OC)=C2C(=O)OC (some centres not stated)
IC50: 2.87 µM

COC(=O)C=C(NC(CO)(CO)CO)C(=O)OC
IC50: > 100 µM (inactive)

COC(=O)C1=C(C(=O)OC)C2([C@H](Cc3ccccc3)Nc3ccc(C)cc3)C=CC1O2 (some centres not stated)
IC50: 7.19 µM

CCCCNC(=O)c1c(NC(=O)c2ccccc2)n(Cc2ccccc2)c2nc3ccccc3nc12
IC50: 91.1 µM

CCC(=O)Nc1c(S(=O)(=O)c2ccccc2)c2nc3ccccc3nc2n1Cc1ccccc1
IC50: 43.4 µM

CCCN1C(=O)C(NC(C)=O)c2cc(OC)ccc21 (configuration not stated)
IC50: > 100 µM (inactive)

CCCCn1c(NC(=O)c2ccco2)c(C#N)c2nc3ccccc3nc21
IC50: 3.45 µM

CCCCn1c(N)c(S(=O)(=O)c2ccc(C)cc2)c2nc3ccccc3nc21
IC50: > 100 µM (inactive)

COC(=O)C1=C(C(=O)OC)C2([C@@H](C)Nc3ccccc3)C=CC1O2 (some centres not stated)
IC50: 7.79 µM

COCCn1c(NC(=O)c2ccc(Cl)cc2)c(S(=O)(=O)c2ccc(C)cc2)c2nc3ccccc3nc21
IC50: 6.59 µM

C=CC[C@H](Nc1ccc(Cl)cc1)C12C=CC(O1)C(C(=O)OC)=C2C(=O)OC (some centres not stated)
IC50: 4.18 µM

COc1ccc2c(c1)C(NC(C)=O)C(=O)N2CCN1CCOCC1 (configuration not stated)
IC50: 5.02 µM

CCCCn1c(N)c(C#N)c2nc3ccccc3nc21
IC50: 13.3 µM

C=CC[C@@H](N(Cc1ccccc1)/C(=C\C(=O)OC)C(=O)OC)C12C=CC(O1)C(C(=O)OC)=C2C(=O)OC (some centres not stated)
IC50: 21.3 µM

COc1ccc2c(c1)C(=O)C(=O)N2CCN1CCOCC1
IC50: 76.8 µM

C=CC[C@H](Nc1ccc(OC)cc1)C12C=CC(O1)C(C(=O)OC)=C2C(=O)OC (some centres not stated)
IC50: 17.7 µM

C=CC[C@H](N(Cc1ccccc1)/C(=C\C(=O)OC)C(=O)OC)C12C=CC(O1)C(C(=O)OC)=C2C(=O)OC (some centres not stated)
IC50: 15.1 µM

CCCCn1c(NC(=O)c2ccccc2Cl)c(S(=O)(=O)c2ccccc2)c2nc3ccccc3nc21
IC50: 5.63 µM

CCCCn1c(NC(=O)c2ccc(F)cc2)c(S(=O)(=O)c2ccc(C)cc2)c2nc3ccccc3nc21
IC50: 6.24 µM

COC(=O)C1=C(C(=O)O)C2C=CC1([C@@H](Cc1ccccc1)Nc1ccccc1)O2 (some centres not stated)
IC50: 2.87 µM

CCC[C@@H](Nc1ccccc1)C12C=CC(O1)C(C(=O)OC)=C2C(=O)OC (some centres not stated)
IC50: 0.533 µM

C=CC[C@@H](Nc1ccc(Cl)cc1)C12C=CC(O1)C(C(=O)OC)=C2C(=O)OC (some centres not stated)
IC50: 3.84 µM

CCCCn1c(NC(=O)c2ccccc2Cl)c(C#N)c2nc3ccccc3nc21
IC50: 20.1 µM

COC(=O)C1=C(C(=O)OC)C2([C@@H](Cc3ccccc3)Nc3ccc(OC)cc3)C=CC1O2 (some centres not stated)
IC50: 4.87 µM

C=CCC(c1ccco1)N(Cc1ccccc1)/C(=C/C(=O)OC)C(=O)OC (configuration not stated)
IC50: > 100 µM (inactive)

Cc1cc(C)c2c(c1)C(=O)C(=O)N2CCN1CCOCC1
IC50: > 100 µM (inactive)

COc1cc(/C=C2\C(=O)N(c3ccccc3)N=C2C)ccc1O
IC50: 21.1 µM and 25.5 µM

COc1ccc2c(c1)C(NC(C)=O)C(=O)N2CCOc1ccccc1 (configuration not stated)
IC50: 70.2 µM

COC(=O)[C@@H]1C2CCC([C@@H](Cc3ccccc3)Nc3ccccc3)(O2)[C@@H]1C(=O)OC (some centres not stated)
IC50: > 100 µM (inactive)

CCCCn1c(NC(=O)c2ccc(F)cc2)c(C#N)c2nc3ccccc3nc21
IC50: 0.757 µM

CCCCn1c(NC(=O)C2CCCCC2)c(C#N)c2nc3ccccc3nc21
IC50: 2.39 µM

c1ccc(CC(Nc2ccccc2)c2ccco2)cc1 (configuration not stated)
IC50: > 100 µM (inactive)

CC(=O)NC1C(=O)N(CCN2CCOCC2)c2ccc(C)cc21 (configuration not stated)
IC50: > 100 µM (inactive)

CCCCCn1c(NC(=O)c2ccco2)c(C(=O)OCC)c2nc3ccccc3nc21
IC50: 4.9 µM

COC(=O)C1=C(C(=O)OC)C2([C@@H](Cc3ccccc3)Nc3ccccc3)C=CC1O2 (some centres not stated)
IC50: 0.329 µM

Nc1c(C(=O)NCc2ccco2)c2nc3ccccc3nc2n1Cc1ccccc1
IC50: 41.2 µM

COc1ccc2c(c1)C(NC(C)=O)C(=O)N2CC1COc2ccccc2O1 (configuration not stated)
IC50: 66.3 µM

COC(=O)C1=C(C(=O)OC)C2([C@H](Cc3ccccc3)Nc3ccc(OC)cc3)C=CC1O2 (some centres not stated)
IC50: 13 µM

COc1ccc2c(c1)C(NC(C)=O)C(=O)N2CCc1ccccc1 (configuration not stated)
IC50: > 100 µM (inactive)

CCCCn1c(NC(=O)c2ccccc2)c(C#N)c2nc3ccccc3nc21
IC50: 2.93 µM and 1.2 µM

COC(=O)C1=C(C(=O)OC)C2([C@@H](Cc3ccccc3)Nc3ccc(Cl)cc3)C=CC1O2 (some centres not stated)
IC50: 0.713 µM

COCCNC(=O)c1c(NC(=O)c2ccccc2)n(Cc2ccccc2)c2nc3ccccc3nc12
IC50: 51.3 µM

C=C[C@H](Nc1ccccc1)C12C=CC(O1)C(C(=O)OC)=C2C(=O)OC (some centres not stated)
IC50: 10.4 µM

COC(=O)C1=C(C(=O)OC)C2([C@@H](Cc3ccccc3)Nc3ccc(C)cc3)C=CC1O2 (some centres not stated)
IC50: 2.96 µM

C=CC[C@H](Nc1ccccc1)C12C=CC(O1)C(C(=O)OC)=C2C(=O)OC (some centres not stated)
IC50: 5.95 µM

C=CC[C@H](Nc1ccc(C)cc1)C12C=CC(O1)C(C(=O)OC)=C2C(=O)OC (some centres not stated)
IC50: 11.7 µM

CCCCn1c(NC(=O)c2ccc(Cl)cc2)c(C#N)c2nc3ccccc3nc21
IC50: 2.1 µM

N#Cc1c(NC(=O)c2ccccc2Cl)n(Cc2ccccc2)c2nc3ccccc3nc12
IC50: 2.44 µM

CCCCn1c(NC(=O)c2ccco2)c(S(=O)(=O)c2ccc(C)cc2)c2nc3ccccc3nc21
IC50: 7.9 µM

COC(=O)C1=C(C(=O)OC)C2([C@H](Cc3ccccc3)Nc3ccccc3)C=CC1O2 (some centres not stated)
IC50: 5.04 µM

COC(=O)C1=C(C(=O)OC)C2(C(Cc3ccc(F)cc3)Nc3ccccc3)C=CC1O2 (configuration not stated)
IC50: 0.527 µM

CCCCn1c(NC(=O)c2cccc(Cl)c2)c(C#N)c2nc3ccccc3nc21
IC50: 1.62 µM

CCCCn1c(NC(C)=O)c(C#N)c2nc3ccccc3nc21
IC50: 8.11 µM

CCCCn1c(NC(=O)c2ccc(OC)cc2)c(S(=O)(=O)c2ccc(C)cc2)c2nc3ccccc3nc21
IC50: 8.08 µM

C=CC[C@@H](Nc1ccccc1)C12C=CC(O1)C(C(=O)OC)=C2C(=O)OC (some centres not stated)
IC50: 1.8 µM

N#Cc1c(NC(=O)c2ccccc2Cl)n(C2CCCCC2)c2nc3ccccc3nc12
IC50: 1.95 µM

CCCC1=NN(c2ccccc2)C(=O)/C1=C\c1ccc(O)cc1
IC50: 19.2 µM

C=CC[C@@H](Nc1ccc(OC)cc1)C12C=CC(O1)C(C(=O)OC)=C2C(=O)OC (some centres not stated)
IC50: 22.3 µM

COC(=O)C1=C(C(=O)OC)C2([C@@H](Cc3ccc(C)cc3)Nc3ccccc3)C=CC1O2 (some centres not stated)
IC50: 0.369 µM

COc1cc(/C=C2\C(=O)N(c3ccccc3)N=C2C)ccc1OC(=O)c1cccs1
IC50: 15.8 µM

COC(=O)C1=C(C(=O)OC)C2([C@@H](Cc3ccc(OC)cc3)Nc3ccccc3)C=CC1O2 (some centres not stated)
IC50: 0.614 µM

CCCCn1c(NC(=O)CC)c(S(=O)(=O)c2ccc(C)cc2)c2nc3ccccc3nc21
IC50: 33.1 µM

— PubChem BioAssay AID485374 (Sanford-Burnham Center for Chemical Genomics, 2010)
